# Laboratory results as given in a melting point compilation (Tetko et al.; mined from patent text by program, amines drawn as free bases though some values may be those of a salt).
# Residues, ends and D or L forms follow the SMILES beside them. *: point of attachment. OiPr = CC(C)O*
row,Compound,melting point [°C]
1,CCOC(=O)c1c(CN(C)c2ccccn2)nc2cc(OC)c(OC)cc2c1-c1ccc(OC)c(OC)c1,174 to 175
2,Cc1cc([N+](=O)[O-])ccc1NCCCn1ccnc1,163
3,COC(=O)COc1ccc(SCc2cc(-c3ccc(Cl)cc3)on2)cc1C,79 to 80
4,CC(=O)NC1(c2ccccc2)CCN(CC[C@@H](c2ccc(Cl)c(Cl)c2)[C@@H](O)c2ccnn2-c2ccccc2)CC1 (racemic),115 to 118
5,CCCCc1ccc(C2(O)CN3CCC2CC3)o1 (stereo not drawn),94 to 96
6,CC(C)OC(=O)C(CO)NC(=O)C(CC(=O)O)NC(=O)C1CCCN1 (stereo not drawn) (H-Pro-Asp-Ser-OiPr; configuration not given here),230 to 233
7,COC(=O)[C@H]1[C@@H](N=[N+]=[N-])C(=O)N1Cc1ccc(OC)cc1OC (relative stereo),82 to 84
8,CNc1nc(-c2ccncc2)n[nH]1,228 to 230
9,CCc1nc2ccc(Cc3ccc(C(=O)NO)cc3)cc2c(=O)n1CCc1ccccc1,181 to 183
10,CN1CCN(Cc2ccc(-c3cccc(-c4cncc(C#N)c4Nc4ccc5[nH]ccc5c4)c3)s2)CC1,120 to 123
11,Cc1c2c(c(Cc3ccc(C(C)C)cc3)c(C)c1NC(=O)CC(C)(C)C)OCC2,201 to 202
12,COc1ccc(C(=O)Sc2ccccn2)cc1,73
13,O=CC=Cc1cnn(-c2c(Cl)cc(C(F)(F)F)cc2Cl)n1,68 to 69
14,CNC(=C[N+](=O)[O-])NCCCSc1nc(C)co1,92 to 93
15,CC(=O)OC1CSC(Oc2cnccc2Br)C(OC(C)=O)C1OC(C)=O (stereo not drawn),153
16,CCc1cc(=O)c2ccc(O)cc2o1,189
17,Cn1cc(C(=O)Nc2ccccc2-c2cc(Cl)cc(Cl)c2)c(C(F)(F)F)n1,101 to 105
18,CCOC(C)(OCC)C(=O)c1c[nH]c2ncc(-c3cc(OC)c(OC)c(OC)c3)nc12,198 to 201
19,COP(=O)(Cc1cc(C(C)(C)C)c(O)c(C(C)(C)C)c1)c1ccccc1 (stereo not drawn),112 to 114
20,NC(=O)c1c(Cl)ccc(Br)c1F,157 to 158
21,Cc1oc(-c2ccccc2)nc1COc1ccc(COc2ccc(-c3ccccc3)cc2CC(=O)O)cc1,102 to 103
22,CCOCCn1c(C2CCN(C)C(c3ccc(C(C)(C)C)cc3)C2)nc2ccccc21 (stereo not drawn),51 to 53
23,CC1COc2c(C3CC3)c(F)cc3c(=O)c(C(=O)O)cn1c23 (stereo not drawn),263 to 265
24,Cc1nc(N(C)C)sc1C(=O)c1ccc(N)c(N)c1,174 to 178
25,COCOc1cc(F)ccc1-c1cc(-c2cccc([N+](=O)[O-])c2)c(C#N)c(NC(=O)c2ccno2)n1,161 to 162

row,Compound,melting point [°C]
1,CCCCc1ncc(/C=C(/CO)Cc2cccs2)n1Cc1ccccc1Cl,114 to 115
2,Cn1c(=O)n(C2CCNCC2)c2ccc(Cl)cc21,201
3,CCCNC(=O)C(C)=Cc1ccc2c(c1)c(Cc1ccc(C(=O)O)cc1OC)cn2CCC(=O)N(C)C,90 to 97
4,Cc1sc2nc3cccc(C)c3c(=O)n2c1C,278 to 280
5,CCOC(=O)Cc1ccc(NC(=O)C(COc2ccc(Cl)cc2)NS(=O)(=O)c2ccc(Br)cc2)cc1 (racemic),154 to 156
6,O=C(O)c1coc(Cc2ccccc2)n1,155 to 156
7,C[C@@H](c1ccc(F)cc1)N1Cc2cncn2C(C)(c2ccc(C#N)cc2)C1=O (stereo partly drawn),78 to 82
8,CCOCCOCCn1c(C=O)cc2c3c(c(-c4ccccc4Cl)cc21)C(=O)NC3=O,162 to 165
9,C[C@@H](COS(C)(=O)=O)NS(=O)(=O)c1ccccc1[N+](=O)[O-],125 to 126
10,CCOC(=O)c1c(C)n(C(=O)c2ccccc2)c2ccc(Oc3nc(OC)cc(OC)n3)c(C(=O)OCc3ccccc3)c12,128 to 132
11,CCOC(=O)c1nc(C)cc(C#N)c1C,55.5
12,CC(=O)Nc1ccc2c(c1)NC(=O)C(CCCN1CCN(c3ccc(F)cc3)CC1)O2 (stereo not drawn),111 to 112
13,O=C(O)CCCCCOc1nc(-c2ccccc2)cc(-c2ccccc2)n1,127 to 129
14,CC(=O)c1c(C)c2cnc(Nc3ccc(N4CCOCC4)nc3)nc2n(C2CCCC2)c1=O,224 to 226
15,Nc1cccnc1Nc1ccccc1C(=O)c1ccc(Cl)cc1,145 to 146
16,CN(C)CCCOc1ccnc2cc([N+](=O)[O-])ccc12,146 to 149
17,CC(C)(C)C(=O)C(Cc1cccnc1)Oc1ccc(Cl)cc1 (stereo not drawn),77 to 79
18,CCOC(=O)c1ccc(-c2nc(COc3ccc(CCl)cc3OCC)c(C)o2)s1,157 to 158
19,CC(O)C(CO)(Cc1cc(C(C)(C)C)c(O)c(C(C)(C)C)c1)Cc1cc(C(C)(C)C)c(O)c(C(C)(C)C)c1 (stereo not drawn),145 to 150
20,Cc1ccc2nc(C)c(CCN3CCN(c4cccc(Cl)c4)CC3)c(=O)n2c1,127 to 128
21,CC(=CC(=O)O)c1cccc([N+](=O)[O-])c1,147 to 149
22,C#CCN1Cc2cccc3cccc(c23)C1=O,139 to 140
23,Cc1cc(Cl)cnc1NCCCNc1ncc(Cc2ccncc2)c(=O)[nH]1,90 to 92
24,O=P(c1ccccc1)(c1ccccc1)N1C[C@@H](P(c2ccccc2)c2ccccc2)C[C@H]1CP(c1ccccc1)c1ccccc1,130
25,CNS(=O)(=O)c1cc2c(c(C(=O)OC)c1)OCCO2,159 to 160

row,Compound,melting point [°C]
1,Cc1cccc(NC(=S)NC2N=C(c3ccccc3F)c3ccccc3N(CC(=O)N3CC4CCC(CC4)C3)C2=O)c1 (racemic),129 to 134
2,CC1(C)NC(=O)c2cc(C#N)ccc2O1,127 to 129
3,CCCC(NS(=O)(=O)c1ccccc1)P(=O)(Oc1ccccc1)Oc1ccccc1 (stereo not drawn),173 to 175
4,O=C(O)/C=C/c1ccc(N2CCCC2)cc1,265
5,CC(C)(C)c1cc(C(=O)NCC(=O)Nc2ccc(N=C(N)c3cccs3)cc2)cc(C(C)(C)C)c1O,> 250
6,CC(C)(C)C(NC(=O)Cc1ccc2ncccc2c1)NC(=NC#N)Nc1cccc2ncccc12 (stereo not drawn),150 to 151
7,O=C(Cc1ccc(Cl)c(Cl)c1)NCc1ccc2c(c1)CN(C1CCC(=O)NC1=O)C2=O (stereo not drawn),191 to 193
8,Clc1ccc(N2CCN(CCCc3c4c(nn3-c3ccccn3)CCCC4)CC2)cc1,101 to 103
9,Clc1ccc(C(N=C2NCCN2)c2ccccc2)cc1 (stereo not drawn),187 to 189
10,CC1CC(=O)c2cc(Cl)c(F)cc2O1 (stereo not drawn),88 to 90
11,Cc1cc(SC2=C(O)C[C@@](CCc3ccccc3)(C(C)C)OC2=O)c(C(C)C)c2sc(N)nc12,160 to 162
12,O=C(O)CC(Cn1cnc2c(=O)[nH]cnc21)C(=O)O (stereo not drawn),130 to 135
13,CCc1nc(C(=O)OC)c(OC)c(N)c1F,110 to 113
14,CCCc1cc(NCc2ccc(Cl)cc2)nc(SCC#N)n1,68 to 70
15,Cc1cc(C)c(NC(=O)CN2CCN(CCSc3nc4ccccc4o3)CC2)c(C)n1,159 to 160
16,COc1cc(-c2csc(N)n2)c(OC)cc1C,191 to 192
17,CCCCCCCC/C=C\CCCCCCCC(=O)OCC1(CO)CCC(=O)O1 (stereo not drawn),38.5 to 39.5
18,COCCCCCCCCCCC(=O)O,31 to 32
19,O=C(c1ccc(F)cc1)C1CCN(CCO)CC1,45 to 47
20,N#Cc1c(N2CCN(C(=O)c3cccs3)CC2)c2sccc2n(Cc2cccc(F)c2)c1=O,271
21,COc1ccc(CC(SC(C)=O)C(N)=O)cc1C(=O)NCc1ccc(C(F)(F)F)cc1 (stereo not drawn),159 to 161
22,COc1ccc(CN2C(=O)C3(COc4cc5onc(N)c5cc43)c3ccccc32)cc1 (stereo not drawn),214 to 216
23,NC(=O)N(O)Cc1ccoc1,125 to 128
24,CC(C)(C#N)c1cc(C(Cl)c2cncnc2)cc(C(C)(C)C#N)c1 (stereo not drawn),118 to 121
25,COc1cc(COc2nn(-c3ccccc3)cc2/C=C/c2nnco2)ccc1OCc1nc(-c2ccco2)oc1C,162 to 163

row,Compound,melting point [°C]
1,COc1ccc(OC2CN(S(=O)(=O)c3ccc(C)cc3)CCc3ccccc32)cc1 (stereo not drawn),84 to 85
2,O=c1c2c(CC3CCCCC3)n[nH]c2c2cccnc2n1-c1ccccc1,280 to 281
3,COC(=O)c1ccc2oc(Cl)nc2c1,104 to 106
4,COCCOCCC1CCCCCc2c1oc(=O)c(C(c1ccccc1)C1CC1)c2O (stereo not drawn),129 to 133
5,COc1c(F)cc(CCCn2nnnc2S)cc1F,64 to 65
6,CCOC(=O)C1=C(CO)NC(C)=C(C(=O)OCCOCc2ccccc2)C1c1cccc([N+](=O)[O-])c1 (stereo not drawn),112 to 114
7,Cc1ccc(SCC2=NOCN2)cc1,85
8,COC(=O)Cc1ccc2c(=O)c3ccccc3ccc2c1,67 to 69
9,Cc1cccc(Cn2nnc(C(N)=O)c2N)c1,200 to 202
10,O=C(Nc1cccc(-c2ccnc3c(C(=O)c4cccs4)cnn23)c1)c1cc(C(F)(F)F)ccc1C(F)(F)F,208 to 210
11,COc1ccc(C2C3=C(COC3=O)Nc3ccc4nn[nH]c4c32)c(F)c1 (stereo not drawn),308 to 310
12,O=C1NCc2cnc(Nc3ccc(N4CCCCC4CO)cc3)nc2N1C1CCCC1 (stereo not drawn),220 to 221
13,Nc1ccc(Br)c2ccn3c(=O)c(C(=O)O)cnc3c12,283 to 284
14,COc1ccc(-n2nc(Sc3ccc(C)cc3C)c(C)c(C#N)c2=O)cc1,166 to 168
15,O=C1OC(COc2ccccc2)CN1CCO (stereo not drawn),89 to 91
16,CCCCCCN1C(=O)C(=O)c2cc(SCCCc3ccc(C(=O)O)cc3)ccc21,150 to 152
17,O=C(Nc1ccc2ccc(-c3ccc(Cl)cc3)nc2n1)c1cccc(Br)c1,220 to 224
18,CCOC(=O)c1cc2sc(C)c(N(C)C(=O)OCc3ccccc3)c2[nH]1,122
19,Cc1cc(-c2cc(F)c(F)cc2-c2ccc(S(N)(=O)=O)cc2)ccc1F,152
20,COC(=O)c1ccc(N)c(C=C(Br)Br)c1,112 to 113
21,CCOC(=O)c1cnn2c(C(F)(F)F)cc(-c3ccc(C(F)(F)F)cc3)cc12,130
22,COc1ccc(OCCCCl)c(C2(SC)Sc3ccccc3N(C)C2=O)c1 (stereo not drawn),135 to 137
23,N#CC1CC2CC2N1C(=O)C(N)C12CC3CC(CC(O)(C3)C1)C2 (stereo not drawn),105 to 108
